Test results published in publication PMC6251916, “CKD-506, a novel HDAC6-selective inhibitor, improves renal outcomes and survival in a mouse model of systemic lupus erythematosus” (Scientific Reports, 2018).

Target: T1, HDAC2 (Homo sapiens, UniProt Q92769)
T1 construct: purchased Reaction biology Corp. (Malvern, PA, USA)
Experiment: HDAC panel assay (enzyme activity)
Format: biochemical
Experimental: HDAC panel assay was performed by Reaction biology Corp. (Malvern, PA, USA) according to their validated protocol. To evaluate the potency and selectivity of CKD-506, HDAC panel assay was carried out by Reaction biology Corp. Briefly, the deacetylation reaction was performed in 50 mM Tris-HCl pH 8.0, 137 mM NaCl, 2.7 mM KCl, 1 mM MgCl2, and 1 mg/ml bovine serum albumin (BSA) with RHK-K(Ac)-AMC as substrate. After the reaction, a fluorescence signal (Ex. 360 nm/Em. 460 nm) developed (~30 min.) by addition of an equal volume of 2 mM nicotinamide, 16 mg/mL trypsin in 50 mM Tris-HCl pH 8.0, 137 mM NaCl, 2.7 mM KCl, and 1 mM MgCl2.

T1 sequence (Q92769 whole entry): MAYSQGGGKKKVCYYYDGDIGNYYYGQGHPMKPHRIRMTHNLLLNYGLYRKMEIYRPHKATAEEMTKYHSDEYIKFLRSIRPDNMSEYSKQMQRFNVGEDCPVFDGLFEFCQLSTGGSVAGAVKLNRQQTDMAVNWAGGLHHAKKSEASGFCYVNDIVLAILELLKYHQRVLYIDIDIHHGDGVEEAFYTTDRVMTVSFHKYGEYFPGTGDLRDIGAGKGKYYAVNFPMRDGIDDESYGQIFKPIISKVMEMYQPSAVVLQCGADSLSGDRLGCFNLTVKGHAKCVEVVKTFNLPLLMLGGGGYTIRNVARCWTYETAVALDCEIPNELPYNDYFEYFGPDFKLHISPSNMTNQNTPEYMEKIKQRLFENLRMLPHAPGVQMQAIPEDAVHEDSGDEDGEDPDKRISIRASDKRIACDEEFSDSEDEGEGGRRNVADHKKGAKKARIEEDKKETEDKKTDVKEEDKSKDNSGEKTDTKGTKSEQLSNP

Substance: CKD-506
- IC50: 2 to 5 µM
